In patent US8163724B2, “Glucocorticosteroids, processes for their preparation, pharmaceutical compositions containing them and their use in therapy” (AstraZeneca AB, priority 2007, dated 2012):

Target: T1, recombinant human GR (Homo sapiens, UniProt P04150)
T1 construct: purchased Panvera/Invitrogen P2812 (kit P2893)
T1 sequence (P04150 1-777): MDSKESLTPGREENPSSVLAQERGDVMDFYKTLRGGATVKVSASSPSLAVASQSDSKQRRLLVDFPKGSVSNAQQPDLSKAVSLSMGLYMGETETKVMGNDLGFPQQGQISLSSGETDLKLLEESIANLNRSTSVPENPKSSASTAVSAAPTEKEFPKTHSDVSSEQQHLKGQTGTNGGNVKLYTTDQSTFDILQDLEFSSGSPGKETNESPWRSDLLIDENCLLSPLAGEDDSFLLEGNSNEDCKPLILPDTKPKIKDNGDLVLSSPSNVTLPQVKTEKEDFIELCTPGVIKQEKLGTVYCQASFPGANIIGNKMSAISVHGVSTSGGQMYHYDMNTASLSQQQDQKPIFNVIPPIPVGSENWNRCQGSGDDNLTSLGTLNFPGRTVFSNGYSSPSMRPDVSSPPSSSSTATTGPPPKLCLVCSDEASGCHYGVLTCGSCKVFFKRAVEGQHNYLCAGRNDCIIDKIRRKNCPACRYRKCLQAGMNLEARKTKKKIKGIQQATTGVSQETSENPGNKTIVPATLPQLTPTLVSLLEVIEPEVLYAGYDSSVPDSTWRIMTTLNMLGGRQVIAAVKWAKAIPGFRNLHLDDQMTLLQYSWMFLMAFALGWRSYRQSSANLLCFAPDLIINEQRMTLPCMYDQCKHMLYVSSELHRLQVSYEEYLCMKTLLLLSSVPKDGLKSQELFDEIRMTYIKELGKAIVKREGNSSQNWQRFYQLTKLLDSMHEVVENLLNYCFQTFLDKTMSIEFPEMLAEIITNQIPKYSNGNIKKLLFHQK
Assay: Human Glucocorticoid Receptor (GR) Assay (fluorescence polarization, Panvera/Invitrogen kit)
Format: binding
Details: fluorescence polarization; GS Red tracer; 2 hours at room temperature; 100% control 10 μM Dexamethasone; read-out: Inhibition of GR binding, IC50
Experimental: Human Glucocorticoid Receptor (GR) Assay
The assay is based on a commercial kit from Panvera/Invitrogen (Part number P2893). The assay technology is fluorescence polarization. […] The GR and Stabilizing Peptide reagents are stored at −70° C. while the GS Red is stored at −20° C. Also included in the kit are 1M DTT (Panvera, Part number P2325, stored at −20° C.) and GR Screening buffer 10× (Panvera, Part number P2814, stored at −70° C. initially but once thawed stored at room temperature). Avoid repeated freeze/thaws for all reagents. The GR Screening buffer 10× comprises 100 mM potassium phosphate, 200 mM sodium molybdate, 1 mM EDTA and 20% DMSO.
0% control was 100% DMSO and 100% control was 10 μM Dexamethasone. Background solution (8 μL; assay buffer 10×, Stabilizing Peptide, DTT and ice cold MQ water) was added to the background wells. GS Red solution (7 μL; assay buffer 10×, Stabilizing Peptide, DTT, GS Red and ice cold water) was added to all wells except background wells. GR solution (7 μL; assay buffer 10×, Stabilizing Peptide, DTT, GR and ice cold water) was added to all wells. The plate was sealed and incubated in a dark at room temperature for 2 hours.

Going from `CC(C)OC(=O)O[C@]1(C(=O)SCC#N)CC[C@H]2[C@@H]3CCC4=Cc5c(cnn5-c5ccc(F)cc5)C[C@]4(C)[C@H]3[C@@H](O)C[C@@]21C` [Example 68, S-(Cyanomethyl)(1R,3aS,3bS,10aR,10bS,11S,12aS)-7-(4-fluorophenyl)-11-hydroxy-10a,12a-dimethyl-1-{[(1-methylethoxy)carbonyl]oxy}-1,2,3,3a,3b,4,5,7,10,10a,10b,11,12,12a-tetradecahydrocyclopenta[5,6]naphtho[1,2-f]indazole-1-carbothioate] to `COCCC(=O)O[C@]1(C(=O)SCF)CC[C@H]2[C@@H]3CCC4=Cc5c(cnn5-c5ccc(F)cc5)C[C@]4(C)[C@H]3[C@@H](O)C[C@@]21C` [Example 63, (1R,3aS,3bS,10aR,10bS,11S,12aS)-1-{[(Fluoromethyl)thio]carbonyl}-7-(4-fluorophenyl)-11-hydroxy-10a,12a-dimethyl-1,2,3,3a,3b,4,5,7,10,10a,10b,11,12,12a-tetradecahydropcyclopenta[5,6]naphtho[1,2-f]indazol-1-yl 3-methoxypropanoate], the IC50 falls from 12 nM to 3.3 nM (3.6-fold).

First: C[C@]12Cc3cnn(-c4ccc(F)cc4)c3C=C1CC[C@H]1[C@@H]3CC[C@](OC(=O)C4CC4)(C(=O)SCF)[C@@]3(C)C[C@H](O)[C@@]12F [Example 196, (1R,3aS,3bS,10aS,10bR,11S,12aS)-1-{[(Fluoromethyl)sulfanyl]carbonyl}-10b-fluoro-7-(4-fluorophenyl)-11-hydroxy-10a,12a-dimethyl-1,2,3,3a,3b,4,5,7,10,10a,10b,11,12,12a-tetradecahydrocyclopenta[5,6]naphtho[1,2-f]indazol-1-yl cyclopropanecarboxylate]
Second: C[C@]12Cc3cnn(-c4ccc(F)nc4)c3C=C1CC[C@H]1[C@@H]3CC[C@](OC(=O)C4CC4)(C(=O)SCF)[C@@]3(C)C[C@H](O)[C@@]12F [Example 208, (1R,3aS,3bS,10aS,10bR,11S,12aS)-1-{[(Fluoromethyl)sulfanyl]carbonyl}-10b-fluoro-7-(6-fluoropyridin-3-yl)-11-hydroxy-10a,12a-dimethyl-1,2,3,3a,3b,4,5,7,10,10a,10b,11,12,12a-tetradecahydrocyclopenta[5,6]naphtho[1,2-f]indazol-1-yl cyclopropanecarboxylate]
The IC50 of the first is 4.1-fold higher: 14 nM for the first, 3.4 nM for the second. The second is the more potent here.

`C[C@]12Cc3cnn(-c4ccccn4)c3C=C1CC[C@@H]1[C@@H]2[C@@H](O)C[C@@]2(C)[C@H]1CC[C@]2(OC(=O)c1ccco1)C(=O)OCC#N` [Example 105, Cyanomethyl(1R,3aS,3bS,10aR,10bS,11S,12aS)-1-[(furan-2-ylcarbonyl)oxy]-11-hydroxy-10a,12a-dimethyl-7-pyridin-2-yl-1,2,3,3a,3b,4,5,7,10,10a,10b,11,12,12a-tetradecahydrocyclopenta[5,6]naphtho[1,2-f]indazole-1-carboxylate] and `C[C@]12Cc3cnn(-c4ccc(F)c(CO)c4)c3C=C1CC[C@@H]1[C@@H]2[C@@H](O)C[C@@]2(C)[C@H]1CC[C@]2(OC(=O)c1ccco1)C(=O)SCC#N` [Example 80, (1R,3aS,3bS,10aR,10bS,11S,12aS)-1-{[(Cyanomethyl)thio]carbonyl}-7-[4-fluoro-3-(hydroxymethyl)phenyl]-11-hydroxy-10a,12a-dimethyl-1,2,3,3a,3b,4,5,7,10,10a,10b,11,12,12a-tetradecahydrocyclopenta[5,6]naphtho[1,2]-indazol-1-yl furan-2-carboxylate] are within 1.5-fold of each other in IC50: 6.1 nM for the first, 4.2 nM for the second.

`CCC(=O)O[C@]1(C(=O)SCC#N)CC[C@H]2[C@@H]3CCC4=Cc5c(cnn5-c5ccc(F)nc5)C[C@]4(C)[C@@]3(F)[C@@H](O)C[C@@]21C` [Example 203, (1R,3aS,3bS,10aS,10bR,11S,12aS)-1-{[(Cyanomethyl)sulfanyl]carbonyl}-10b-fluoro-7-(6-fluoropyridin-3-yl)-11-hydroxy-10a,12a-dimethyl-1,2,3,3a,3b,4,5,7,10,10a,10b,11,12,12a-tetradecahydrocyclopenta[5,6]naphtho[1,2-f]indazol-1-yl propanoate] showed an IC50 of 2.3 nM.
